The values below are quoted from earlier work in US7612202B2, “Process for preparing temozolomide” (Chemagis, Ltd., priority 2005, dated 2009).

Structures are written as SMILES. “Also recorded” adds a separate entry of the source.

The conditions of series [1]: administered Temozolomide dose.

`Cn1nnc2c(C(N)=O)ncn2c1=O` [Temozolomide, 8-carbamoyl-3-methyl-imidazo[5,1-d]-1,2,3,5-tetrazin-4(3H)-one]: where the note is “aqueous buffers, pH<5”, the “stability at acidic pH” value is reported as “stable”. Also, the “stability at pH>7” value (aqueous buffers, pH>7) is recorded as “labile; also recorded: rapidly decomposes to MTIC”. Also, the in vitro half-life (phosphate buffer at 37° C. and pH 7.4) was 1.9 h. Further, in series [1], the “percentage of administered dose metabolized to TMA” value is reported as “about 2%”.
